These results are taken from US20090209525A1, “ENABLING METHODS TO IDENTIFY ALLOSTERIC MODULATORS OF RECEPTOR ACTIVITY” (priority 2006, published 2009).

Broadly, the koff is a measure of how fast the partners let go of each other. Broadly, the EC50 is the concentration at which the effect is half-maximal.

Where a chain is given by its changes, count along the chain named. Like-named read-outs stand apart in the source and are kept apart here. Bounds are passed on as bounds.

For one experiment, the target named is T1, rat M1 N110A receptor (Rattus norvegicus, UniProt P08482, N110A).
T1 construct: expressed in transfected cells; host or cells: NIH-3T3
T1 sequence (P08482 1-460 N110A): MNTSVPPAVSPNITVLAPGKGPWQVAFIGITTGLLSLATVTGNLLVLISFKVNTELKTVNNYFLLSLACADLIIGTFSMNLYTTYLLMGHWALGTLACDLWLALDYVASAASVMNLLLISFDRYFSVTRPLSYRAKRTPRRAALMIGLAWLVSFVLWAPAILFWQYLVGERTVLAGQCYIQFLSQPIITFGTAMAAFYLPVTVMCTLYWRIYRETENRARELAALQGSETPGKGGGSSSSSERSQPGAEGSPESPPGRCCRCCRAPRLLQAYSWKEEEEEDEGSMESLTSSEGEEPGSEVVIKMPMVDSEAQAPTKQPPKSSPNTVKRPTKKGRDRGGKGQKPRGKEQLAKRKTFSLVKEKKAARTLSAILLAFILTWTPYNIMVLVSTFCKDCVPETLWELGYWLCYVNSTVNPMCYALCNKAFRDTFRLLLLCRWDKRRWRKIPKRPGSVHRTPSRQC
The experiment is described as follows: R-SAT functional assay, N110A mutant. Type of experiment: cell-based. The settings on record: for Eff (%) / Shift / EC50: Table 3; for Eff (%): maximum response, normalized; for Shift: EC50 N110A divided by EC50 wild-type. The method, then:
(§1) Cells are co-transfected for 18 h with DMEM containing 0.08 micrograms/ml of an expression vector for the expression of the mutant receptor and 0.3 micrograms/ml pSI-Bgal (Promega, Madison Wis.), and 0.5% v/v Polyfect (Qiagen, Valencia Calif.), as recommended by the manufacturer. On day three, the medium is replaced with DMEM containing 1% PSG, 0.5% calf serum, 2% cyto-sf3 (Kemp Biotechnologies, Frederick, Md.), and varying concentrations of the compounds to be tested. Cells are grown in a humidified atmosphere with 5% ambient CO2 for 5 days. The media is removed from the plates, and beta-galactosidase activity is measured by the addition of o-nitrophenyl -d-galactopyranoside in phosphate-buffered saline with 5% Nonidet P-40. […] The following equation is fitted to the data using GraphPad Prism software (San Diego, Calif.):
(§2) NIH-3T3 cells were grown in 96-well tissue culture plates to 70 to 80% confluence in Dulbecco's modified essential media (DMEM) supplemented with 100 units/ml penicillin, 100 micrograms/ml streptomycin, 0.3 mg/ml L-glutamine (1% PSG, GIBCO) and 10% calf serum (Sigma-Aldrich). Cells were transfected for 18 h with DMEM containing 0.08 micrograms/ml receptor DNA and 0.3 micrograms/ml pSI-Bgal (Promega, Madison Wis.), 0.5% v/v Polyfect (Qiagen, Valencia Calif.). Medium was replaced with DMEM containing 1% PSG, 0.5% calf serum, 2% cyto-sf3 (Kemp Biotechnologies, Frederick, Md.), and varying concentrations of ligand. […] Cells were grown in a humidified atmosphere with 5% ambient CO2 for 5 days. Medium was removed from the plates, and beta-galactosidase activity was measured by the addition of o-nitrophenyl -d-galactopyranoside in phosphate-buffered saline with 5% Nonidet P-40.

The target of experiment [1] is T2, CHO-hM1 cell membranes (muscarinic M1 receptor) (Homo sapiens, UniProt P11229).
T2 construct: expressed in transfected cells; host or cells: CHO-hM1
T2 sequence (P11229 1-460): T1 sequence (P08482 1-460 N110A) with V5A, A110N, S254T, S309P, K320R, G337A, V413I
Put plainly: ^3H-NMS dissociation rate assay. The following applies: for koff: read-out: koff of ^3H-NMS in the presence of the ligand. It is filed as binding. The method, then: Approximately 10 μg protein was added per well in the assay.

For a further experiment, the target named is T3, rat M1 Y106A receptor (Rattus norvegicus, UniProt P08482, Y106A).
T3 construct: expressed in transfected cells
T3 sequence (P08482 1-460 Y106A): T1 sequence (P08482 1-460 N110A) with Y106A, A110N
The experiment is described as follows: R-SAT functional assay, Y106A mutant. Type of experiment: cell-based. The following applies: for Shift / EC50 / Eff (%): Table 3; for Shift: EC50 Y106A divided by EC50 wild-type; for Eff (%): maximum response, normalized. The protocol:
as §1, §2

[2] abbreviates: atropine-induced dissociation, result in words.

Turning to `CCCCC1CCN(CCCC(=O)c2ccccc2C)CC1` [AC-42, 4-n-butyl-1-[4-(2-methylphenyl)-4-oxo-1-butyl] piperidine hydrogen chloride], the “Eff (%)” value on rat M1 N110A receptor (N110A) was 7 ± 1%. Also, in experiment [1], the “effect on dissociation rate of ^3H-NMS” value is recorded as “significantly retarded” and the koff was 0.00175 s⁻¹. Also, the Shift at rat M1 Y106A receptor is above 8. In addition, at rat M1 Y106A receptor (Y106A), the EC50 was above 1 µM and the “Eff (%)” value is given as >30 ± — %.
With `CCCCC1CCN(CCCN2C(=O)COc3cc(F)ccc32)CC1` [AC-260584, 4-[3-(4-Butyl-piperidin-1-yl)-propyl]-7-fluoro-4H-benzo [1,4]oxazin-3-one], on rat M1 N110A receptor (R-SAT, N110A), the “decrease in potency relative to wild-type” value stood at 30 fold. Further, the Shift is recorded as 43 on rat M1 N110A receptor and 6 on rat M1 Y106A receptor. In addition, the figures for the concentration for a half-maximal effect (EC50) at rat M1 N110A receptor (N110A) and on rat M1 Y106A receptor (Y106A) were 0.631 µM and 0.0794 µM, respectively. Moreover, the results for the “Eff (%)” value on rat M1 N110A receptor (N110A) and on rat M1 Y106A receptor (Y106A) were 38 ± 6% and 69 ± 3%, respectively. Also, the “effect on dissociation rate of ^3H-NMS” value in experiment [1] (setting [2]) is “significantly retarded”. Also, in experiment [1], the koff was 0.0015 s⁻¹.
`Clc1ccc2c(c1)N=C(N1CCNCC1)c1ccccc1N2` [NDMC, 8-chloro-11-(1-piperazinyl)-5H-dibenzo [b,e] [1,4] diazepine]: the Shift at rat M1 N110A receptor turned out to be 21; at rat M1 Y106A receptor, 2. The EC50 was 0.794 µM at rat M1 N110A receptor (N110A) and 0.1 µM on rat M1 Y106A receptor (Y106A). The “Eff (%)” value at rat M1 N110A receptor (N110A) was 66 ± 16%; at rat M1 Y106A receptor (Y106A), 112 ± 15%. In addition, the “effect on dissociation rate of ^3H-NMS” value in experiment [1] (setting [2]) is on record as “did not significantly retard”. Also, the koff in experiment [1] is 0.00338 s⁻¹. Also, the Emax at rat M1 Y106A receptor (R-SAT, Y106A, read-out: increase of maximum response over response at wild-type) turned out to be 40%.
